Results: PubChem BioAssay AID1259408 (Genetic Toxicology Data Bank (GENE-TOX), 2018)
Active and inactive are the calls of the source. No rule for the calls is given here.

Tested on: GENE-TOX genotoxicity assays, various organisms and cells
Experiment: GENE-TOX mutagenicity studies
Conditions: for call: Assay Type: In vivo carcinogenicity studies
[1] = Species/Cell Type: Drosophila melanogaster, Assay Type: Sex-linked recessive lethal gene mutation, Assay Code: SRLT, Evaluation Type: Evaluation A (Pre-1980)
[2] = Species/Cell Type: Nonhuman, Assay Code: CCGT, Evaluation Type: Evaluation A (Pre-1980)
[3] = Species/Cell Type: Salmonella typhimurium (one or more of the five standard strains: TA98, TA100, TA1535, TA1537, and TA1538), Assay Type: Histidine reverse gene mutation, Ames assay, Assay Code: SAL+*, Activation: With metabolic activation, Evaluation Type: Evaluation A (Pre-1980)
[4] = Species/Cell Type: Saccharomyces cerevisiae, Assay Type: Mitotic recombination or gene conversion, Assay Code: YEH-, Evaluation Type: Evaluation A (Pre-1980)
[5] = Species/Cell Type: Salmonella typhimurium (one or more of the five standard strains: TA98, TA100, TA1535, TA1537, and TA1538), Assay Type: Histidine reverse gene mutation, Ames assay, Assay Code: SAL+, Evaluation Type: Evaluation A (Pre-1980)
[6] = Species/Cell Type: Human lymphocytes, Assay Type: Sister-chromatid exchange (SCE) in vitro, Assay Code: SCL+D, Dose Response: With dose response, Evaluation Type: Evaluation B (Post-1980)
[7] = Species/Cell Type: Human, Assay Type: Sister-chromatid exchange (SCE) in vitro, Assay Code: SC1+D, Dose Response: With dose response, Evaluation Type: Evaluation B (Post-1980)
[8] = Species/Cell Type: Mouse (BALB/c-3T3) cells, Assay Type: Cell transformation, Assay Code: CTB+D, Dose Response: With dose response, Evaluation Type: Evaluation A (Pre-1980)
[9] = Species/Cell Type: Nonhuman, Assay Code: CCG+, Evaluation Type: Evaluation A (Pre-1980)
[10] = Species/Cell Type: Chinese hamster ovary (CHO) cells, Assay Type: Forward gene mutation at the HPRT locus, Assay Code: CHOT, Evaluation Type: Evaluation B (Post-1980)

Question: Which mutagenic call (Species/Cell Type: Bacillus subtilis (H17 vs M45T), Assay Type: Rec-assay, spot test, DNA effects (bacterial DNA repair), Assay Code: REXT, Evaluation Type: Evaluation A (Pre-1980)) does the source give for CCN(CC)c1ccc2c(-c3ccccc3C(=O)O)c3ccc(=[N+](CC)CC)cc-3oc2c1 here?
Answer: no conclusion

Question: What about the mutagenic call [1] of the same compound?
Answer: no conclusion

Question: And the call [2]?
Answer: no conclusion

Question: And the mutagenic call (Species/Cell Type: Nonhuman, Assay Type: Sister-chromatid exchange (SCE) in vivo, Assay Code: SC3T, Evaluation Type: Evaluation B (Post-1980))?
Answer: no conclusion

Question: What about the mutagenic call (Species/Cell Type: Saccharomyces cerevisiae, Assay Type: Mitotic recombination or gene conversion, Assay Code: YEC-, Evaluation Type: Evaluation A (Pre-1980)) of the same compound?
Answer: inactive; negative

Question: What about the mutagenic call [3] of the same compound?
Answer: active; positive

Question: With ClC(Cl)(Cl)C(Cl)(Cl)Cl as the compound, how does the call (Species/Cell Type: Nonhuman, Assay Code: CCG+L, Evaluation Type: Evaluation A (Pre-1980)) read?
Answer: active; positive

Question: And the mutagenic call [4]?
Answer: inactive; negative

Question: And the mutagenic call (Species/Cell Type: Salmonella typhimurium (one or more of the five standard strains: TA98, TA100, TA1535, TA1537, and TA1538), Assay Type: Histidine reverse gene mutation, Ames assay, Assay Code: SAL-, Evaluation Type: Evaluation A (Pre-1980))?
Answer: inactive; negative

Question: N#[N+]c1nc[nH]c1C(N)=O was tested. Which mutagenic call [5] did it give?
Answer: active; positive

Question: Cc1ccc2cc3c(ccc4ccccc43)c3c2c1CC3 was tested. Which mutagenic call (Species/Cell Type: Chinese hamster lung (V79) cells, Assay Type: Forward gene mutation at the HPRT or ouabain locus, Assay Code: V79+*, Activation: With metabolic activation, Evaluation Type: Evaluation A (Pre-1980)) did it give?
Answer: active; positive

Question: And the mutagenic call (Species/Cell Type: Chinese hamster lung (V79) cells, Assay Type: Forward gene mutation, host-mediated assay, Assay Code: HMG+, Evaluation Type: Evaluation A (Pre-1980))?
Answer: active; positive

Question: And the mutagenic call (Species/Cell Type: Chinese hamster ovary (CHO) cells, Assay Type: Forward gene mutation at the HPRT locus, Assay Code: CHO+*, Activation: With metabolic activation, Evaluation Type: Evaluation B (Post-1980))?
Answer: active; positive

Question: What about the mutagenic call [1] of the same compound?
Answer: no conclusion

Question: And the mutagenic call (Species/Cell Type: Fischer rat embryo (RLV/1706) cells, Assay Type: Cell transformation, viral enhanced, Assay Code: CTR+, Evaluation Type: Evaluation A (Pre-1980))?
Answer: active; positive

Question: And the mutagenic call (Species/Cell Type: Fischer rat embryo (SA7/RE) cells, Assay Type: Cell transformation, viral enhanced, Assay Code: CTA+, Evaluation Type: Evaluation A (Pre-1980))?
Answer: active; positive

Question: What about the mutagenic call (Species/Cell Type: Human diploid fibroblasts, Assay Type: Unscheduled DNA synthesis (UDS) in vitro, DNA effects, Assay Code: UDH+, Evaluation Type: Evaluation A (Pre-1980)) of the same compound?
Answer: active; positive

Question: And the mutagenic call [6]?
Answer: active; positive

Question: What about the mutagenic call [7] of the same compound?
Answer: active; positive

Question: And the mutagenic call (Species/Cell Type: Mammalian polychromatic erythrocytes, Assay Type: Micronucleus test, chromosome aberrations, Assay Code: MNTT, Evaluation Type: Evaluation A (Pre-1980))?
Answer: no conclusion

Question: What about the mutagenic call [8] of the same compound?
Answer: active; positive

Question: And the mutagenic call (Species/Cell Type: Mouse (C3H/10T1/2) cells, Assay Type: Cell transformation, Assay Code: CTH+D, Dose Response: With dose response, Evaluation Type: Evaluation A (Pre-1980))?
Answer: active; positive

Question: And the mutagenic call (Species/Cell Type: Mouse embryo (AKR/ME) cells, Assay Type: Cell transformation, Assay Code: CTK+, Evaluation Type: Evaluation A (Pre-1980))?
Answer: active; positive

Question: And the mutagenic call (Species/Cell Type: Mouse prostate cells, Assay Type: Cell transformation, Assay Code: CTM+D, Dose Response: With dose response, Evaluation Type: Evaluation A (Pre-1980))?
Answer: active; positive

Question: What about the mutagenic call (Species/Cell Type: Mouse, Sex: Male, Assay Type: Sperm morphology, Assay Code: SPI+, Evaluation Type: Evaluation A (Pre-1980)) of the same compound?
Answer: active; positive

Question: And the mutagenic call (Species/Cell Type: Neurospora crassa, Assay Type: Forward gene mutation, Assay Code: NEF+, Evaluation Type: Evaluation A (Pre-1980))?
Answer: active; positive

Question: What about the mutagenic call (Species/Cell Type: Nonhuman, Assay Type: Chromosome aberrations in vitro, Assay Code: CY&-, Evaluation Type: Evaluation A (Pre-1980)) of the same compound?
Answer: inactive; negative

Question: And the call [9]?
Answer: active; positive

Question: What about the mutagenic call (Species/Cell Type: Nonhuman, Assay Type: Sister-chromatid exchange (SCE) in vitro, Assay Code: SC2+, Evaluation Type: Evaluation A (Pre-1980)) of the same compound?
Answer: active; positive

Question: And the mutagenic call (Species/Cell Type: Nonhuman, Assay Type: Sister-chromatid exchange (SCE) in vivo, Assay Code: SC3+D, Dose Response: With dose response, Evaluation Type: Evaluation A (Pre-1980))?
Answer: active; positive

Question: And the mutagenic call (Species/Cell Type: Rat primary hepatocytes, Assay Type: Unscheduled DNA synthesis (UDS) in vitro, DNA effects, Assay Code: UDP+D, Dose Response: With dose response, Evaluation Type: Evaluation A (Pre-1980))?
Answer: active; positive

Question: And the mutagenic call [3]?
Answer: active; positive

Question: And the mutagenic call (Species/Cell Type: Salmonella typhimurium, Assay Type: Forward and reverse gene mutation, body fluid assay, Assay Code: BFU-, Evaluation Type: Evaluation A (Pre-1980))?
Answer: inactive; negative

Question: What about the mutagenic call (Species/Cell Type: Syrian hamster embryo (SA7/SHE) cells, Assay Type: Cell transformation, viral enhanced, Assay Code: CT7+, Evaluation Type: Evaluation A (Pre-1980)) of the same compound?
Answer: active; positive

Question: What about the mutagenic call (Species/Cell Type: Syrian hamster embryo (SHE) cells, Assay Type: Cell transformation, clonal assay, Assay Code: CTC+D, Dose Response: With dose response, Evaluation Type: Evaluation A (Pre-1980)) of the same compound?
Answer: active; positive

Question: And the mutagenic call (Species/Cell Type: Syrian hamster embryo (SHE) cells, Assay Type: Cell transformation, focus assay, Assay Code: CTF+, Evaluation Type: Evaluation A (Pre-1980))?
Answer: active; positive

Question: For Cc1c2cc[n+](C)cc2c(C)c2c1[nH]c1ccc(O)cc12, which mutagenic call (Species/Cell Type: Chinese hamster ovary (CHO) cells, Assay Type: Forward gene mutation at the HPRT locus, Assay Code: CHO+, Evaluation Type: Evaluation B (Post-1980)) is on record?
Answer: active; positive

Question: What does the source list for O=c1c(O)c(-c2ccc(O)c(O)c2)oc2cc(O)cc(O)c12?
Answer: mutagenic call [10]: no conclusion; mutagenic call [6]: active; positive; mutagenic call [7]: active; positive; mutagenic call (Species/Cell Type: Mammalian polychromatic erythrocytes, Assay Type: Micronucleus test, chromosome aberrations, Assay Code: MNT+, Evaluation Type: Evaluation B (Post-1980)): active; positive; mutagenic call (Species/Cell Type: Nonhuman, Assay Type: Sister-chromatid exchange (SCE) in vitro, Assay Code: SC2+/-*, Activation: With metabolic activation, Evaluation Type: Evaluation B (Post-1980)): inactive; positive without activation, negative with activation; mutagenic call (Species/Cell Type: Nonhuman, Assay Type: Sister-chromatid exchange (SCE) in vivo, Assay Code: SC3-, Evaluation Type: Evaluation B (Post-1980)): inactive; negative; mutagenic call (Species/Cell Type: Saccharomyces cerevisiae, Assay Type: Mitotic recombination or gene conversion, Assay Code: YEC+, Evaluation Type: Evaluation A (Pre-1980)): active; positive; mutagenic call [5]: active; positive

Question: CC=Cc1ccccc1O was tested. Which mutagenic call [6] did it give?
Answer: active; positive

Question: And the mutagenic call [7]?
Answer: active; positive

Question: For COc1cc2c3c(cc(C)c2c2ccccc12)C(=O)CC3, which mutagenic call [3] is on record?
Answer: active; positive

Question: How did the mutagenic call (Species/Cell Type: Human diploid fibroblasts, Assay Type: Unscheduled DNA synthesis (UDS) in vitro, DNA effects, Assay Code: UDH-, Evaluation Type: Evaluation A (Pre-1980)) turn out when C=CCC1=C(C)C(OC(=O)[C@@H]2[C@@H](C=C(C)C)C2(C)C)CC1=O (some centres undefined) was run?
Answer: inactive; negative

Question: And the mutagenic call [4]?
Answer: inactive; negative

Question: Which mutagenic call (Species/Cell Type: Bacillus subtilis (H17 vs M45), Assay Type: Rec-assay, spot test, DNA effects (bacterial DNA repair), Assay Code: REW+, Evaluation Type: Evaluation A (Pre-1980)) does the source give for CN(C)c1ccc(N=NS(=O)(=O)O)cc1 here?
Answer: active; positive

Question: And the mutagenic call (Species/Cell Type: Escherichia coli WP2, Assay Type: Tryptophan reverse gene mutation, Assay Code: WP2+, Evaluation Type: Evaluation A (Pre-1980))?
Answer: active; positive

Question: And the mutagenic call (Species/Cell Type: Escherichia coli WP2 UVRA, Assay Type: Tryptophan reverse gene mutation, Assay Code: WPU+, Evaluation Type: Evaluation A (Pre-1980))?
Answer: active; positive

Question: What about the mutagenic call [6] of the same compound?
Answer: active; positive

Question: What about the mutagenic call [7] of the same compound?
Answer: active; positive

Question: And the call (Species/Cell Type: Nonhuman, Assay Code: CCG-, Evaluation Type: Evaluation A (Pre-1980))?
Answer: inactive; negative

Question: What about the mutagenic call (Species/Cell Type: Nonhuman, Assay Type: Sister-chromatid exchange (SCE) in vitro, Assay Code: SC2+, Evaluation Type: Evaluation B (Post-1980)) of the same compound?
Answer: active; positive

Question: And the mutagenic call [5]?
Answer: active; positive

Question: CCOC(=O)N(C)C(=O)CSP(=S)(OCC)OCC was tested. Which mutagenic call (Species/Cell Type: Bacillus subtilis (H17 vs M45), Assay Type: Rec-assay, spot test, DNA effects (bacterial DNA repair), Assay Code: REWT, Evaluation Type: Evaluation A (Pre-1980)) did it give?
Answer: no conclusion

Question: How did the mutagenic call (Species/Cell Type: Neurospora crassa, Assay Type: Aneuploidy, chromosome aberrations, Assay Code: NEN-, Evaluation Type: Evaluation A (Pre-1980)) turn out when Oc1c(I)cc(Cl)c2cccnc12 was run?
Answer: inactive; negative

Question: For COc1cc([C@@H]2c3cc4c(cc3[C@@H](O)[C@H]3COC(=O)[C@H]23)OCO4)cc(OC)c1O, which mutagenic call [10] is on record?
Answer: no conclusion

Question: What does the source list for S=C=Nc1cccc2ccccc12?
Answer: mutagenic call (Species/Cell Type: Escherichia coli polA (W3110 vs P3478), Assay Type: Rec-assay, DNA effects (bacterial DNA repair), Assay Code: RE2-, Evaluation Type: Evaluation A (Pre-1980)): inactive; negative; mutagenic call (Species/Cell Type: Escherichia coli polA (W3119 vs P3478), Assay Type: Rec-assay, DNA effects (bacterial DNA repair), Assay Code: RE1T, Evaluation Type: Evaluation A (Pre-1980)): no conclusion; mutagenic call [8]: active; positive; call [2]: no conclusion; mutagenic call [4]: inactive; negative; mutagenic call (Species/Cell Type: Salmonella typhimurium, Assay Type: Forward and reverse gene mutation, host-mediated assay, Assay Code: HMA-, Evaluation Type: Evaluation A (Pre-1980)): inactive; negative; mutagenic call (Species/Cell Type: Syrian hamster embryo (SHE) cells, Assay Type: Cell transformation, clonal assay, Assay Code: CTC-, Evaluation Type: Evaluation A (Pre-1980)): inactive; negative

Question: c1ccc2c(c1)cc1ccc3c4ccccc4cc4ccc2c1c43 was tested. Which call [9] did it give?
Answer: active; positive
